{"source": "patent US12226410B2", "about": "“Methods for enhancing cellular clearance of pathological molecules via activation of the cellular protein ykt6” (NORTHWESTERN UNIVERSITY, priority 2019, dated 2025)", "key": {"TH protein": {"system": "TH protein", "experiment": "FTI treatment of DASYN53 mice: midbrain TH levels", "format": "in vivo", "settings": "i.p. 0.9 mg/kg, 26d", "from_the_text": "(§1) FIGS. 8A, 8B, 8C, 8D, 8E, and 8F. FTI treatment enhances GCase activity and reduces pathological a-syn in transgenic mice. 8A) GCase activity in the midbrain of FTI (LNK-754)-treated DASYN53 mice (treated as in FIG. 7) (n=4, veh; n=5, FTI). 8B & 8C) Quantification of soluble and insoluble a-syn from midbrains of FTI-treated DASYN53 mice normalized to total protein (CBB). Syn211 is selective for human (hu) a-syn; C20 and syn303 detect mouse (ms) and hu a-syn, (n=3, nTg+Veh; n=4, DASYN53+veh; n=5 DASYN53+FTI). 8D) Midbrain TH levels were quantified by western blot of FTI-treated DASYN53 mice (n=3). 8E) Body weight of FTI-treated DASYN53 mice (n=9, nTg+Veh; n=7, DASYN53+veh; n=7 DASYN53+FTI). 8F) Rotarod test of FTI-treated DASYN53 mice (n=12, nTg+Veh; n=7, DASYN53+veh; n=7 DASYN53+FTI). Values are the mean+/−SEM. *p<0.05, **p<0.01, and *** p<0.001. Student's t-test, panel A; ANOVA with Tukey's posthoc test, panels B-F.\nTreatment of C57Bl/6 and DASYN53 mice with farnesyltransferase inhibitors. 3 mo old C57BL6 mice were i.p. injected daily with 0.9 mg/kg LNK-754 that was formulated in a vehicle of 0.5% sodium carboxymethylcellulose and filtered before use for 14 days. DASYN53 mice were i.p. injected daily with 0.9 mg/kg LNK-754 as above. Mice were perfused with PBS and the brains (cortex) were rapidly dissected and frozen until analysis. […]"}, "DASYN53 mice": {"system": "DASYN53 mice", "experiment": "Behavioral analysis of DASYN53 mice (body weight, Rotarod)", "format": "in vivo", "settings": "i.p. 0.9 mg/kg", "from_the_text": "as §1\nBehavioral analysis of DASYN53 mice. These assays were done as previously described (Tsika et al., 2010). […] Balance and motor behavior testing was done at the end of the injection protocol (between days 24-26) and determined using a Rotarod apparatus (Ugo Basile) with acceleration from 4-40 rpm over a 300 second period. Latency to fall was recorded over 4 trials per mouse, and the data were presented as the average of 3 trials (excluding the first trial as a training session). […]"}, "A53T iPSn": {"system": "A53T iPSn", "experiment": "Measurement of neuron viability (neurofilament)", "format": "cell-based, human", "settings": "A53T iPSn analyzed at day 100; 5 nM, 14d", "protocol": "FIGS. 6A, 6B, 6C, 6D, 6E, 6F, and 6G. FTIs enhance lysosomal GCase activity and reduce pathological a-syn by blocking ykt6 farnesylation. 6A) GCase activity in FTI-treated A53T iPSn at d80 (LNK-754 5 nM, 5d). 6B) GCase activity in FTI-treated A53T iPSn expressing empty vector (vect) or ykt6-CS (n=4). 6C) Lysosomal GCase activity was assessed in FTI-treated SHSY5Y cells transfected with scrambled or ykt6 shRNA (KD) (n=3). 6D) Quantification of Triton X-100 soluble (T-sol) a-syn by western blot from FTI-treated A53T iPSn (5 nM, 7d). *, non-specific band. (n=3). 6E) Quantification of insoluble a-syn from A53T iPSn as in D (n=3). 6F) Insoluble a-syn in FTI-treated H4 cells (5 nM, 5 days) transfected with either scrambled or ykt6 shRNA (n=6). 6G) Neuron viability was assessed in FTI-treated A53T iPSn (5 nM, 14d from d86-d100) by quantification of neurofilament protein. […]\nMeasurement of neuron viability. iPSC-neurons were seeded on a PDL/laminin coated 96 well plate and analyzed and treated with either lentivirus expressing ykt6 CS vs empty vector, or DMSO vs 5 nM FTI (LNK-754) for 14 days. […] Neurofilament intensity was determined using Image Studio software (version 2.1 Li-cor) and normalized to cell volume. Replicates represent values from four individual culture wells and were analyzed by Student's T-test using GraphPad Prism software V 6.0. […]"}}}
{"molecule": "C#Cc1cccc(-c2cc(=O)n(C)c3ccc([C@](O)(c4ccc(Cl)cc4)c4cncn4C)cc23)c1", "note": "[LNK-754]", "values": [{"measurement": "TH levels in midbrain", "setting": "TH protein", "value": "partially restore TH levels"}, {"measurement": "reduction in body weight of DASYN53 mice", "setting": "DASYN53 mice; day 23-24", "value": "rescued"}, {"measurement": "reduction in motor performance (Rotarod) of DASYN53 mice", "setting": "DASYN53 mice; days 24-26", "value": "rescued"}, {"measurement": "neuron viability", "setting": "A53T iPSn", "value": "improved neuron viability"}]}
